Source: patent publication US9708336B2, “Metallo-beta-lactamase inhibitors” (priority 2014, dated 2017)
Read-outs that look alike come from different tables or passages of the source.

Legend:
[1] = tested on: Klebsiella pneumoniae expressing VIM-1 (IHMA599644); assay: Antibiotic potentiation activity: synergistic concentration (MITC95) with imipenem, OD600 growth; type: cell-based; details: for Klebsiella pneumoniae expressing VIM-1 (IHMA 599644) MITC95: concentration giving 95% inhibition of bacterial growth
Method: (§1) Antibiotic Potentiation Activity: Determination of Synergistic Concentration
(§2) The bacterial strains tested included the clinical strains Escherichia coli expressing NDM-1 (CLB30005, CLB30016), Serratia marcescens expressing IMP-1 (CL5741), and Klebsiella pneumoniae expressing VIM-1 (IHMA599644) Inhibitor activity was measured in the presence and absence of imipenem in a 384-well microplate.
(§3) The clinical strains CLB30016, CL5741 and IHMA599644 were grown on trypticase soy agar containing 5% sheep's blood. The clinical strain CLB30005 was grown on Mueller Hinton broth agar containing 8 ug/ml imipenem. The bacteria on agar plates were incubated at 35° C. with humidity overnight. The following day, individual colonies from each clinical strain were picked and resuspended in 5 ml saline to attain an OD600 of 0.14, 0.11, 0.15 and 0.13, for CLB30005, CLB30016, CL5741 and IHMA599644, respectively. These were further diluted 1:100 into 1.1×CAMHB and used to inoculate the test wells as described below.
(§4) Imipenem in 10 mM 3-(N-morpholino)propanesulfonic acid (MOPS, pH 7) was stored in single use aliquots at −80° C. […] On the day of the assay, 4 μl of antibiotic was added to 45 ul of bacteria followed by 1 μl of test compound and mixed by pipetting and with an orbital shaker. The concentration of antibiotic used in the assay was 4 μg/ml, or optionally 1 μg/ml. Microplates were covered and incubated at 35° C. for 22 hours to 24 hours. At the end of the incubation, absorbance was determined using a spectrophotometer.

[2] = tested on: Escherichia coli expressing NDM-1 (CLB30016); assay: as above; type: cell-based; details: for Escherichia coli expressing NDM-1 (CLB 30016) MITC95: concentration giving 95% inhibition of bacterial growth
Method: as §1, §2, §3, §4

[3] = tested on: Serratia marcescens expressing IMP-1 (CL5741); assay: as above; type: cell-based; details: for Serratia marcescens expressing IMP-1 (CL5741) MITC95: concentration giving 95% inhibition of bacterial growth
Method: as §1, §2, §3, §4

NDM-1 = NDM-1 (Klebsiella pneumoniae, UniProt C7C422); assay: biochemical; type: biochemical; details: read-out: NDM-1 IC50
IMP-1 = IMP-1 (Serratia marcescens, UniProt P52699); assay: biochemical; type: biochemical; details: read-out: IMP-1 IC50
VIM-1 = VIM-1 (Pseudomonas aeruginosa (strain ATCC 15692 / DSM 22644 / CIP 104116 / JCM 14847 / LMG 12228 / 1C / PRS 101 / PAO1), UniProt A0A0F7KYQ8); assay: Enzyme activity: determination of IC50, fluorescence assay with CCF2-FA substrate (VIM-1); type: biochemical
[4] = Klebsiella pneumoniae expressing VIM-1 (IHMA599644), 95% growth inhibition
[5] = Escherichia coli expressing NDM-1 (CLB30016), 95% growth inhibition
[6] = Serratia marcescens expressing IMP-1 (CL5741), 95% growth inhibition
[7] = NDM-1 enzyme, CCF2-FA fluorescence assay
[8] = IMP-1 enzyme, CCF2-FA fluorescence assay
[9] = VIM-1 enzyme, CCF2-FA fluorescence assay, read-out: VIM-1 IC50
[10] = fluorescence assay with CCF2-FA substrate
[11] = fluorescence assay with CCF2-FA substrate, read-out: VIM-1 IC50
[12] = Klebsiella pneumoniae IHMA599644 (VIM-1), 95% growth inhibition
[13] = (CLB30016, NDM-1), 95% growth inhibition
[14] = Serratia marcescens CL5741 (IMP-1), 95% growth inhibition
[15] = NDM-1 enzyme, CCF2-FA substrate
[16] = IMP-1 enzyme, CCF2-FA substrate
[17] = VIM-1 enzyme, CCF2-FA substrate, read-out: VIM-1 IC50

Sequence of NDM-1 (C7C422 whole entry, looked up, species assumed): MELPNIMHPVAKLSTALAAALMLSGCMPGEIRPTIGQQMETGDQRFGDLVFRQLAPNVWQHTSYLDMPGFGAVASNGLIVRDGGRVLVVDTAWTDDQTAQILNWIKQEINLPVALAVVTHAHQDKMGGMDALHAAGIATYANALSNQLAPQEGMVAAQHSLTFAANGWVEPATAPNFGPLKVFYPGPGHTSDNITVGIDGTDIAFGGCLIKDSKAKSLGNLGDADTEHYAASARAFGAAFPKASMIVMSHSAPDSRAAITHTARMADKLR
Sequence of IMP-1 (P52699 whole entry, looked up): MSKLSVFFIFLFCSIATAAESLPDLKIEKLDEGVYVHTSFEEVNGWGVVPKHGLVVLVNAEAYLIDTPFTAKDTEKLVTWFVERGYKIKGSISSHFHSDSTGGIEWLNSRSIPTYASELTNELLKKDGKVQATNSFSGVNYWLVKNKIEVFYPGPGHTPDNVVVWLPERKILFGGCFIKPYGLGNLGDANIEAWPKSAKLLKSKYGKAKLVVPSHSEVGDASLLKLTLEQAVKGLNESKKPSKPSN

NS(=O)(=O)c1cccc(-c2ccc(OC3CCNCC3)cc2)c1-c1nnn[nH]1 [Example 316, 4′-(piperidin-4-yloxy)-2-(1H-tetrazol-5-yl)-[1,1′-biphenyl]-3-sulfonamide]
Klebsiella pneumoniae MITC95 [1, 4]: 12.5 µM
Escherichia coli MITC95 [2, 5]: 0.9766 µM
Serratia marcescens MITC95 [3, 6]: 2.344 µM
IC50 (NDM-1; [7]): 5.11 nM
IC50 (IMP-1; [8]): 69.3 nM
IC50 (VIM-1; [9]): 67.7 nM

CN(C)CCCN(C)Cc1ccc(-c2cccc(S(N)(=O)=O)c2-c2nnn[nH]2)cc1 [Example 368, 4′-({[3-(dimethylamino)propyl](methyl)amino}methyl)-2-(1H-tetrazol-5-yl)biphenyl-3-sulfonamide]
Klebsiella pneumoniae MITC95 [1, 4]: >200 µM
Escherichia coli MITC95 [2, 5]: 1.563 µM
Serratia marcescens MITC95 [3, 6]: 9.375 µM
IC50 (NDM-1; [7]): 23.4 nM
IC50 (IMP-1; [8]): 417 nM
IC50 (VIM-1; [9]): 1680 nM

NS(=O)(=O)c1c(C(F)(F)F)ccc(N2CCC3(CCNCC3)CC2)c1-c1nnn[nH]1 [Example 783, 3-(3,9-diazaspiro[5.5]undecan-3-yl)-2-(1H-tetrazol-5-yl)-6-(trifluoromethyl) benzenesulfonamide]
Klebsiella pneumoniae MITC95 ([1]; IHMA599644 (VIM-1), 95% inhibition of bacterial growth): 2.344 µM
Escherichia coli MITC95 ([2]; CLB30016 (NDM-1), 95% inhibition of bacterial growth): 1.172 µM
Serratia marcescens MITC95 ([3]; CL5741 (IMP-1), 95% inhibition of bacterial growth): 0.5859 µM
IC50 (NDM-1; [10]): 4.91 nM
IC50 (IMP-1; [10]): 13.4 nM
IC50 (VIM-1; [11]): 1.93 nM

CN1CCC2(CCN(c3ccc(-c4cccc(S(N)(=O)=O)c4-c4nnn[nH]4)cn3)C2)C1 (stereo not drawn) [Example 632, 3-[6-(7-methyl-2,7-diazaspiro[4.4]nonan-2-yl)-3-pyridyl]-2-(1H-tetrazol-5-yl)benzenesulfonamide]
Klebsiella pneumoniae MITC95 [1, 12]: 100 µM
Escherichia coli MITC95 [2, 13]: 1.172 µM
Serratia marcescens MITC95 [3, 14]: 6.25 µM
IC50 (NDM-1; [15]): 26.8 nM
IC50 (IMP-1; [16]): 254 nM
IC50 (VIM-1; [17]): 482 nM

N#Cc1ccccc1Cc1cccc(S(N)(=O)=O)c1-c1nnn[nH]1 [Example 166, 3-(2-cyanobenzyl)-2-(1H-tetrazol-5-yl)benzenesulfonamide]
Klebsiella pneumoniae expressing VIM-1 (IHMA 599644) MITC95 [1]: 100 µM
Escherichia coli expressing NDM-1 (CLB 30016) MITC95 [2]: 2.344 µM
Serratia marcescens expressing IMP-1 (CL5741) MITC95 [3]: 3.906 µM
IC50 (NDM-1; [10]): 6.89 nM
IC50 (IMP-1; [10]): 74.5 nM
IC50 (VIM-1; [11]): 18.8 nM

NS(=O)(=O)c1cccc(-c2ccc(CNC3CCN(C4CCCC4)CC3)cc2)c1-c1nnn[nH]1 [Example 379, 4′-{[(1-cyclopentylpiperidin-4-yl)amino]methyl}-2-(1H-tetrazol-5-yl)biphenyl-3-sulfonamide]
Klebsiella pneumoniae MITC95 [1, 4]: 200 µM
Escherichia coli MITC95 [2, 5]: 1.563 µM
Serratia marcescens MITC95 [3, 6]: 4.688 µM
IC50 (NDM-1; [7]): 27.3 nM
IC50 (IMP-1; [8]): 318 nM
IC50 (VIM-1; [9]): 639 nM

NS(=O)(=O)c1nccc(N2CCC3(CC2)NCNC3=O)c1-c1nnn[nH]1 [Example 221, 4-(4-oxo-1,3,8-triazaspiro[4.5]dec-8-yl)-3-(1H-tetrazol-5-yl)pyridine-2-sulfonamide]
Klebsiella pneumoniae expressing VIM-1 (IHMA 599644) MITC95 [1]: 200 µM
Escherichia coli expressing NDM-1 (CLB 30016) MITC95 [2]: 4.688 µM
Serratia marcescens expressing IMP-1 (CL5741) MITC95 [3]: 100 µM
IC50 (NDM-1; [10]): 251 nM
IC50 (IMP-1; [10]): 6170 nM
IC50 (VIM-1; [11]): 6170 nM

NS(=O)(=O)c1c(CC2CCN(CCO)CC2)ccc(-c2ccc(C3CNC3)cc2)c1-c1nn[nH]n1 [Example 607, 3-[4-(azetidin-3-yl)phenyl]-6-[[1-(2-hydroxyethyl)-4-piperidyl]methyl]-2-(2H-tetrazol-5-yl)benzenesulfonamide]
Klebsiella pneumoniae MITC95 [1, 12]: 1.563 µM
Escherichia coli MITC95 [2, 13]: 1.563 µM
Serratia marcescens MITC95 [3, 14]: 3.125 µM
IC50 (NDM-1; [15]): 11.3 nM
IC50 (IMP-1; [16]): 42.2 nM
IC50 (VIM-1; [17]): 2.07 nM

Nc1nc2cccc(-c3ccc(CC4CCNCC4)c(S(N)(=O)=O)c3-c3nn[nH]n3)c2[nH]1 [Example 612, 3-(2-amino-3H-benzo[d]imidazol-4-yl)-6-(piperidin-4-ylmethyl)-2-(2H-tetrazol-5-yl)benzenesulfonamide]
Klebsiella pneumoniae MITC95 [1, 12]: 1.281 µM
Escherichia coli MITC95 [2, 13]: 0.5 µM
Serratia marcescens MITC95 [3, 14]: 2.563 µM
IC50 (NDM-1; [15]): 1.63 nM
IC50 (IMP-1; [16]): 65.5 nM
IC50 (VIM-1; [17]): 7.23 nM

CS(=O)(=O)Nc1ccc(-c2ccc(C(F)(F)F)c(S(N)(=O)=O)c2-c2nn[nH]n2)cc1 [Example 274, 4′-(methylsulfonamido)-2-(2H-tetrazol-5-yl)-4-(trifluoromethyl)-[1,1′-biphenyl]-3-sulfonamide]
Klebsiella pneumoniae MITC95 [1, 4]: 4.688 µM
Escherichia coli MITC95 [2, 5]: 0.7813 µM
Serratia marcescens MITC95 [3, 6]: 0.1953 µM
IC50 (NDM-1; [7]): 0.637 nM
IC50 (IMP-1; [8]): 0.637 nM
IC50 (VIM-1; [9]): 0.637 nM

NS(=O)(=O)c1c(C2CC2)ccc(-c2cccc3ncccc23)c1-c1nn[nH]n1 [Example 529, 6-Cyclopropyl-3-(quinolin-5-yl)-2-(2H-tetrazol-5-yl)benzenesulfonamide]
Klebsiella pneumoniae MITC95 [1, 12]: 9.375 µM
Escherichia coli MITC95 [2, 13]: 3.906 µM
Serratia marcescens MITC95 [3, 14]: 0.7813 µM
IC50 (NDM-1; [15]): 2.2 nM
IC50 (IMP-1; [16]): 6.3 nM
IC50 (VIM-1; [17]): 0.991 nM

NS(=O)(=O)c1cccc(-c2cccc3sc(NC4CCN(CCF)CC4)nc23)c1-c1nnn[nH]1 [Example 646, 3-[2-[[1-(2-fluoroethyl)-4-piperidyl]amino]-1,3-benzothiazol-4-yl]-2-(1H-tetrazol-5-yl)benzenesulfonamide]
Klebsiella pneumoniae MITC95 [1, 12]: 100 µM
Escherichia coli MITC95 [2, 13]: 3.125 µM
Serratia marcescens MITC95 [3, 14]: 50 µM
IC50 (NDM-1; [15]): 0.851 nM
IC50 (IMP-1; [16]): 31.8 nM
IC50 (VIM-1; VIM-1 IC50, VIM-1 enzyme, CCF2-FA substrate): 5.1 nM

NS(=O)(=O)c1c(C(F)(F)F)ccc(C2CCNc3ccccc32)c1-c1nnn[nH]1 (stereo not drawn) [Example 493, 3-(1,2,3,4-Tetrahydroquinolin-4-yl)-2-(1H-tetrazol-5-yl)-6-(trifluoromethyl)benzenesulfonamide]
Klebsiella pneumoniae MITC95 [1, 12]: 3.125 µM
Escherichia coli MITC95 [2, 13]: 1.563 µM
Serratia marcescens MITC95 [3, 14]: 0.3906 µM
IC50 (NDM-1; [15]): 1.69 nM
IC50 (IMP-1; [16]): 4.5 nM
IC50 (VIM-1; [17]): 0.133 nM

NC(=O)c1cc2cccc(-c3ccc(C(F)(F)F)c(S(N)(=O)=O)c3-c3nn[nH]n3)c2[nH]1 [Example 528, 7-(3-Sulfamoyl-2-(2H-tetrazol-5-yl)-4-(trifluoromethyl)phenyl)-1H-indole-2-carboxamide]
Klebsiella pneumoniae MITC95 [1, 12]: 12.5 µM
Escherichia coli MITC95 [2, 13]: 1.563 µM
Serratia marcescens MITC95 [3, 14]: 3.125 µM
IC50 (NDM-1; [15]): 0.0248 nM
IC50 (IMP-1; [16]): 0.425 nM
IC50 (VIM-1; [17]): 0.146 nM

NS(=O)(=O)c1cccc(-c2cnc(N3CCCCC3)nc2)c1-c1nnn[nH]1 [Example 122, 3-(2-(piperidin-1-yl)pyrimidin-5-yl)-2-(1H-tetrazol-5-yl)benzenesulfonamide]
Klebsiella pneumoniae expressing VIM-1 (IHMA 599644) MITC95 [1]: >200 µM
Escherichia coli expressing NDM-1 (CLB 30016) MITC95 [2]: 4.688 µM
Serratia marcescens expressing IMP-1 (CL5741) MITC95 [3]: 4.688 µM
IC50 (NDM-1; [10]): 3.08 nM
IC50 (IMP-1; [10]): 63.1 nM
IC50 (VIM-1; [11]): 249 nM

N=C(N)NCc1ccc(-c2ccc(C(F)(F)F)c(S(N)(=O)=O)c2-c2nn[nH]n2)cc1 [Example 440, 4′-(guanidinomethyl)-2-(2H-tetrazol-5-yl)-4-(trifluoromethyl)-[1,1′-biphenyl]-3-sulfonamide]
Klebsiella pneumoniae MITC95 [1, 4]: 0.7656 µM
Escherichia coli MITC95 [2, 5]: 0.25 µM
Serratia marcescens MITC95 [3, 6]: 0.0625 µM
IC50 (NDM-1; [7]): 3.91 nM
IC50 (IMP-1; [8]): 3.37 nM
IC50 (VIM-1; [9]): 0.357 nM

NS(=O)(=O)c1cccc(-c2ccc(N3CCC(CO)C3)nc2)c1-c1nnn[nH]1 (stereo not drawn) [Example 622, 3-[6-[3-(hydroxymethyl)pyrrolidin-1-yl]-3-pyridyl]-2-(1H-tetrazol-5-yl)benzenesulfonamide]
Klebsiella pneumoniae MITC95 [1, 12]: >200 µM
Escherichia coli MITC95 [2, 13]: 0.9766 µM
Serratia marcescens MITC95 [3, 14]: 6.25 µM
IC50 (NDM-1; [15]): 4.39 nM
IC50 (IMP-1; [16]): 85.6 nM
IC50 (VIM-1; [17]): 142 nM
